Data from US7615514B2, “Selective herbicides based on substituted arylsulphonylaminocarbonyl-triazolinones and safeners” (Bayer CropScience AG, priority 2001, dated 2009).

Tested on: Winter barley
Assay: Post-emergence test/greenhouse: damage to crop plants
Assay type: in vivo
Conditions: greenhouse, about three weeks after application
Method: The active compound (flucarbazone-sodium and propoxycarbazone-sodium were each used as WG 70) or safener components are in each case dissolved in a few ml (generally 2-3 ml) of solvent (generally acetone or N,N-dimethyl-formamide), and the solutions are combined and then—if appropriate after addition of an emulsifier—diluted with water to the desired concentration. In general, an aqueous spray liquor was prepared using 0.5% of the additive Renex-36. The test plants are grown under controlled conditions (temperature, light, atmospheric humidity) in a greenhouse. The test plants are sprayed when they have reached a height of 5-15 cm. The concentration of the spray liquor is chosen such that the particular amounts of active compound desired are applied in 500 l of water/ha. After spraying, the pots with the test plants are kept in a greenhouse chamber under controlled conditions (temperature, light, atmospheric humidity) until the test has ended. About three weeks after the application, the degree of damage to the crop plants is rated in % damage in comparison to the development of the untreated control. The figures denote: • 0%=no damage (like untreated control) • 100%=total destruction/damage

COc1nn(C(=O)NS(=O)(=O)c2ccccc2OC(F)(F)F)c(=O)n1C [flucarbazone-sodium, 2-(2-trifluoromethoxyphenylsulphonylaminocarbonyl)-4-methyl-5-methoxy-2,4-dihydro-3H-1,2,4-triazol-3-one]
Damage Winter barley (in %) (application rate 8 g of a.i./ha): 40%

CCCOc1nn(C(=O)NS(=O)(=O)c2ccccc2C(=O)OC)c(=O)n1C [propoxycarbazone-sodium, 2-(2-methoxycarbonylphenylsulphonylaminocarbonyl)-4-methyl-5-n-propoxy-2,4-dihydro-3H-1,2,4-triazol-3-one]
Damage Winter barley (in %) (application rate 2 g of a.i./ha): 35%
Damage Winter barley (in %) (application rate 4 g of a.i./ha, 0%=no damage, 100%=total destruction): 60%
